The target of the assay is human GPR120 (Homo sapiens (Human), UniProt Q5NUL3). Briefly: GPR120 pERK AlphaScreen SureFire Assay (human GPR120 pERK assay). Type of assay: cell-based. As to conditions: CHO cells stably transfected with short form of human GPR120. An excerpt: GPR120 activity was monitored by measuring phosphorylation of ERK (pERK), since G protein receptors are known to activate the ERK signaling cascade either directly and/or through recruitment of arrestin that serves as a scaffold for downstream signaling events.
Chain of human GPR120 (Q5NUL3 whole entry): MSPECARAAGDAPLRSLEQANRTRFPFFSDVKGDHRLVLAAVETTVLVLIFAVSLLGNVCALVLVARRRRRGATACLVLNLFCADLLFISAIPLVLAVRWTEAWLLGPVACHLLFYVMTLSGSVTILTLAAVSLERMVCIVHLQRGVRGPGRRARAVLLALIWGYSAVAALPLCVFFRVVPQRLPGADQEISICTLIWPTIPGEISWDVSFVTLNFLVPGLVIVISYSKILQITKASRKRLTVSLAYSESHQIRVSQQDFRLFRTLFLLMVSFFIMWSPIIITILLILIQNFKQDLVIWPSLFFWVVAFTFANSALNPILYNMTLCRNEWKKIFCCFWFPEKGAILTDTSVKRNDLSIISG
GPR120 pERK AlphaScreen SureFire Assay
The human and mouse GPR120-mediated intracellular phosphorylated ERK assays were established using CHOA12 cells stably transfected with the short form of human or mouse GPR120 receptor. Cells were cultured in growth medium consisting of F-12 media (Invitrogen Cat. #11765) with 5% Charcoal/Dextran FBS (Invitrogen Cat. #12676-029), 500 μg/mL GENETICIN® (Life Technologies Cat. #10131-027) and 250 μg/mL Zeocin (Invitrogen Cat. #R250-01). Cells were cryo-preserved at a concentration of 2×10^7 cells/mL, in 90% Charcoal/Dextran FBS and 10% DMSO, and frozen in liquid nitrogen at a low passage number.
For the pERK assay, 2×10^7 cells/mL cryopreserved human and mouse cells were thawed rapidly in a 37° C. water bath and added to a T-225 flask containing 50 mL growth medium. The flasks were placed in a tissue culture incubator overnight (37° C., 5% CO2). The next day, cells were harvested with trypsin (Gibco Cat. #25300-054), resuspended in serum-containing growth medium and counted using a Cellometer and volume adjusted to a concentration of 0.6×10^6 cells/mL. Cells were plated into 384-well clear bottom tissue culture plates (BD Cat. #353962) at 50 μL/well, for a density of 30,000 cells/well using a MULTIDROP® and incubated for 16-18 hours (overnight) at 37° C. with 5% CO2. The next day, cells were serum starved in 30 μL of F-12 media without any serum or antibiotics for 2 hours at 37° C.
Test compounds were 3-fold, 11-point serially diluted in DMSO in a REMP assay plate (Matrix Cat. #4307) by Tecan and 5 μL was transferred into an ECHO source plate (Labcyte Cat. #LC-0200). Cells were then stimulated with 50 nL of compound dilutions using ECHO liquid handler for 7 min at 37° C. Compounds ranged from final assay concentrations of 33.33 μM to 0.56 nM.
The media was then dumped and cells lysed with 20 μL of 1× Lysis buffer from the AlphaScreen SureFire Phospho-ERK 1/2 Kit (Perkin Elmer Cat. #6760617M). The lysis buffer was diluted 5-fold with water before use. The plate was agitated on a shaker for 10 min after which 2 μL was transferred into a 384-well white proxiplate (Perkin Elmer Cat. #6008289). The SureFire assay reagent mix was prepared by mixing 60 parts Reaction Buffer, 10 parts Activation Buffer, 1 part Donor Beads, 1 part Acceptor Beads (Perkin Elmer Cat. #TGRES10K). 3.5 μL/well of this reagent mix was manually added to the proxiplate with a multichannel pipettor. Plates were spun down at 1000 rpm for 2 min, followed by light-protected incubation at room temperature for 2 hours. The plates were read on the Alpha-technology compatible Envision multilabel plate reader using AlphaScreen protocol according to manufacturer's specifications. The agonist effect of compounds was expressed as 100×(average sample-average blank)/(average total-average blank) where sample is the luminescence activity in the presence of test compound, blank is equal to the luminescence activity in the presence of DMSO control and the total is signal induced by 50 μM linolenic acid as reference compound. Activation data for the test compound over a range of concentrations was plotted as percentage activation of the test compound (100%=maximum response). After correcting for background, EC50 values were determined. The EC50 is defined as the concentration of test compound which produces 50% of the maximal response and was quantified using the 4 parameter logistic equation to fit the data.
The human and mouse GPR120-mediated intracellular phosphorylated ERK assays were also established using CHO-K1 cells stably transfected with the short form of human or mouse GPR120 receptor. […]
A general note: In Alpha technology, singlet oxygen from a donor bead excites a nearby acceptor bead.
For orientation: EC50 means the concentration giving half of the maximal effect. A low value points to higher potency in that assay. `CC1(C)Cc2c(cc(F)cc2-c2ccc(OC[C@@H]3C[C@H]3C(=O)O)cc2)O1` (racemic) [Example 20, Trans-2-((4-(6-fluoro-2,2-dimethyl-2,3-dihydrobenzofuran-4-yl)phenoxy)methyl) cyclopropanecarboxylic acid] gave an EC50 of 990 nM. The result for `CC1(C)Cc2cc(Cl)cc(-c3ccc(CC[C@@H]4C[C@H]4C(=O)O)cc3)c2O1` (single isomer, unassigned) [Example 26] reads 1720 nM; that for `COCCc1cc(-c2cc(OC(C)C)ccc2F)ccc1OC[C@@H]1C[C@H]1C(=O)O` (racemic) [Example 89, Trans-2-(((2′-fluoro-5′-isopropoxy-3-(2-methoxyethyl)-[1,1′-biphenyl]-4-yl)oxy)methyl) cyclopropanecarboxylic acid], 3250 nM; that for `CC(C)Oc1ccc(F)c(-c2ccc(OC[C@@H]3C[C@H]3C(=O)O)c(F)c2)c1` (single isomer, unassigned) [Example 63], 180 nM. The result for `Cc1ccc(Oc2ccc(F)c(-c3ccc(OCC4CC4C(=O)O)c(F)c3)c2)cc1F` (single isomer, unassigned) [Example 101, Trans-2-(((2′,3-difluoro-5′-(3-fluoro-4-methylphenoxy)-[1,1′-biphenyl]-4-yl)oxy)methyl)cyclopropanecarboxylic acid] reads 130 nM; that for `CC(C)Oc1cc(-c2ccc(OC[C@@H]3C[C@H]3C(=O)O)cc2)c(F)cn1` (racemic) [Example 70, Trans-2-((4-(5-fluoro-2-isopropoxypyridin-4-yl)phenoxy)methyl)cyclopropanecarboxylic acid], 2400 nM. As for `CC(C)Oc1cc(Cl)cc(-c2ccc(OC[C@@H]3C[C@H]3C(=O)O)c(F)c2)c1` (single isomer, unassigned) [Example 13], the figure is 640 nM.

For the compound `O=C(O)[C@H]1C[C@@H]1COc1ccc(-c2cc(Oc3ccccc3)ccc2F)cc1F` (racemic) [Example 9, (Trans)-(+/−)-2-(((2′,3-difluoro-5′-phenoxy-[1,1′-biphenyl]-4-yl)oxy)methyl) cyclopropanecarboxylic acid], a half-maximal response (EC50) required 80 nM. As for `O=C(O)C1CC1COc1ccc(-c2cc(OC(F)(F)F)ccc2F)cc1` (single isomer, unassigned) [Example 52, Trans-2-(((2′-fluoro-5′-(trifluoromethoxy)-[1,1′-biphenyl]-4-yl)oxy)methyl)cyclopropanecarboxylic acid], the figure is 620 nM; as for `COc1ccc(OC(F)(F)F)cc1-c1ccc(OC[C@@H]2C[C@H]2C(=O)O)cc1` (racemic) [Example 71, Trans-2-(((2′-methoxy-5′-(trifluoromethoxy)-[1,1′-biphenyl]-4-yl)oxy)methyl)cyclopropanecarboxylic acid], 1430 nM. The result for `COc1cc(Cl)cc(-c2ccc(CC[C@@H]3C[C@H]3C(=O)O)cc2)c1` (racemic) [Example 77, Trans-2-(2-(3′-chloro-5′-methoxy-[1,1′-biphenyl]-4-yl)ethyl) cyclopropanecarboxylic acid] reads 2340 nM. As for `COc1ccc(F)c(-c2ccc(CC[C@@H]3C[C@H]3C(=O)O)cc2)c1` (relative stereo) [Example 80, Trans-2-(2-(2′-fluoro-5′-methoxy-[1,1′-biphenyl]-4-yl)ethyl) cyclopropanecarboxylic acid], the figure is 3260 nM; as for `CCOc1ccc(F)c(-c2ccc(OC[C@@H]3C[C@H]3C(=O)O)cc2)c1` (racemic) [Example 68, Trans-2-(((5′-ethoxy-2′-fluoro-[1,1′-biphenyl]-4-yl)oxy)methyl) cyclopropanecarboxylic acid], 660 nM; as for `O=C(O)[C@@H]1C[C@@H]1COc1ccc(-c2cc(Oc3ccccc3)ccc2F)cc1` (racemic) [Example 4, Cis-2-(((2′-fluoro-5′-phenoxy-[1,1′-biphenyl]-4-yl)oxy)methyl)cyclopropanecarboxylic acid], 470 nM.

The record behind these values is patent US9938222B2 (BRISTOL-MYERS SQUIBB COMPANY, priority 2014, dated 2018).
